{"source": "patent US20100029761A1", "about": "“NOVEL COMPOUNDS, PHARMACEUTICAL COMPOSITIONS CONTAINING SAME, AND METHODS OF USE FOR SAME” (priority 2005, published 2010)", "key": {"[1]": {"tested_on": "MCF-7 human breast cancer cells", "assay": "XTT cytotoxicity assay (M)", "type": "cell-based", "details": "MCF7, MCF-7, 72 hours", "description": "The XTT assay is a non-radioactive alternative for the [^51Cr] release cytotoxicity assay. XTT is a tetrazolium salt that is reduced to a formazan dye only by metabolically active, viable cells. The reduction of XTT is measured spectrophotometrically as OD490-OD650. To measure the cytotoxicity of specific compounds against cancer cells, 9×10^3 MCF-7 human breast cancer cells, obtained from the American Type Culture Collection are plated per well in 96 well plates in DMEM medium with 10% fetal bovine serum, insulin, penicillin, and streptomycin. Following overnight culture at 37° C. and 5% CO2, the compounds to be tested, dissolved in DMSO, are added to the wells in 1 μl volume at the following concentrations: 80, 40, 20, 10, 5, 2.5, 1.25, and 0.625 μg/ml in triplicate. Additional concentrations are tested if required. 1 μl of DMSO is added to triplicate wells are the vehicle control. C75 is run at 40, 20, […], and 5 μg/ml in triplicate as positive controls. After 72 hours of incubation, cells are incubated for 4 hours with the XTT reagent as per manufacturer's instructions (Cell Proliferation Kit II (XTT) Roche). Plates are read at OD490 and OD650 on a Molecular Devices SpectraMax Plus Spectrophotometer. Three wells containing the XTT reagent without cells serve as the plate blank. XTT data are reported as OD490-OD650. Averages and standard error of the mean are computed using SOFTmax Pro software (Molecular Dynamics). The IC50 for the compounds is defined as the concentration of drug leading to a 50% reduction in OD490-OD650 compared to controls. The OD490-OD650 are computed by the SOFTmax PRO software (Molecular Devices) for each compound concentration. IC50 is calculated by linear regression, plotting the FAS activity as percent of control versus drug concentrations. Linear regression, best-fit line, r^2, and 95% confidence intervals are determined using Prism Version 3.0 (Graph Pad Software)."}, "OV": {"tested_on": "OV", "assay": "XTT cytotoxicity assay (OV)", "type": "cell-based", "details": "abbreviation not defined", "description": "The XTT assay is a non-radioactive alternative for the [^51Cr] release cytotoxicity assay. XTT is a tetrazolium salt that is reduced to a formazan dye only by metabolically active, viable cells. The reduction of XTT is measured spectrophotometrically as OD490-OD650. After 72 hours of incubation, cells are incubated for 4 hours with the XTT reagent as per manufacturer's instructions (Cell Proliferation Kit II (XTT) Roche). Plates are read at OD490 and OD650 on a Molecular Devices SpectraMax Plus Spectrophotometer. Three wells containing the XTT reagent without cells serve as the plate blank. XTT data are reported as OD490-OD650. Averages and standard error of the mean are computed using SOFTmax Pro software (Molecular Dynamics). The IC50 for the compounds is defined as the concentration of drug leading to a 50% reduction in OD490-OD650 compared to controls. The OD490-OD650 are computed by the SOFTmax PRO software (Molecular Devices) for each compound concentration. IC50 is calculated by linear regression, plotting the FAS activity as percent of control versus drug concentrations. Linear regression, best-fit line, r^2, and 95% confidence intervals are determined using Prism Version 3.0 (Graph Pad Software)."}}, "data": [{"molecule": "CCCCCCCCC1OC(=O)C(=O)C1C(=O)OCC", "note": "(centres unmarked) [Compound 1]", "values": [{"measurement": "IC50", "setting": "[1]", "result": "33.7 ± 14.6", "unit": "µg/mL"}, {"measurement": "IC50", "setting": "OV", "result": "18.4 ± 5.8", "unit": "µg/mL"}]}, {"molecule": "CCCCC1OC(=O)C(O)=C1C(=O)OCC", "note": "(centres unmarked) [Compound 2]", "values": [{"measurement": "IC50", "setting": "[1]", "result": "> 80", "unit": "µg/mL"}, {"measurement": "IC50", "setting": "OV", "result": 66.1, "unit": "µg/mL"}]}, {"molecule": "CCCCCCCCC1OC(=O)C(OCC(=O)OCC)=C1C(=O)OCC", "note": "(centres unmarked) [Compound 3]", "values": [{"measurement": "IC50", "setting": "[1]", "result": "26.7 ± 5.3", "unit": "µg/mL"}, {"measurement": "IC50", "setting": "OV", "result": 24.1, "unit": "µg/mL"}]}, {"molecule": "CCCCCCCCC1OC(=O)C(OC)=C1C(=O)OCC", "note": "(centres unmarked) [Compound 4]", "values": [{"measurement": "IC50", "setting": "[1]", "result": "25.3 ± 1.5", "unit": "µg/mL"}, {"measurement": "IC50", "setting": "OV", "result": 9.2, "unit": "µg/mL"}]}, {"molecule": "CCCCCCCCC1OC(=O)C(OCc2ccccc2)=C1C(=O)OCC", "note": "(centres unmarked) [Compound 5]", "values": [{"measurement": "IC50", "setting": "[1]", "result": "> 80", "unit": "µg/mL"}, {"measurement": "IC50", "setting": "OV", "result": 33.9, "unit": "µg/mL"}]}, {"molecule": "C=CCOC1=C(C(=O)OCC)C(CCCCCCCC)OC1=O", "note": "(centres unmarked) [Compound 6]", "values": [{"measurement": "IC50", "setting": "[1]", "result": "> 80", "unit": "µg/mL"}, {"measurement": "IC50", "setting": "OV", "result": "> 80", "unit": "µg/mL"}]}, {"molecule": "CCCCCCCCC1OC(=O)C(OC(=O)OCC)=C1C(=O)OCC", "note": "(centres unmarked) [Compound 7]", "values": [{"measurement": "IC50", "setting": "[1]", "result": 7.7, "unit": "µg/mL"}, {"measurement": "IC50", "setting": "OV", "result": 13.8, "unit": "µg/mL"}]}]}
